From publication PMC5447464 (Gastroenterology, 2017)
Where two headings read alike, the source gives them in different places. Values belong to the compound of their own block, whether it stands above or below them.

Columns and labels:
[1] = tested on: genetically induced liver tumors; test: Primary HCC mouse model; assay type: in vivo; settings: 1500 p.p.m in food, 12 weeks; for number of tumor nodules in the livers: vs control food
SNU-449 = test: Viability of HCC cell line SNU-449; assay type: cell-based, human
HSP90/CDC37 complex = HSP90/CDC37 complex (Homo sapiens, UniProt Q16543); assay type: biochemical; settings: purified recombinant HSP90 and CDC37, ELISA and co-IP
[2] = tested on: HSP70 and HSP27 expression; test: Western blot for heat shock response; assay type: cell-based; settings: treated cell lines
SNU-423 = test: Viability of HCC cell line SNU-423; assay type: cell-based, human
Hep40 = test: Viability of HCC cell line Hep40; assay type: cell-based, human; settings: read-out: IC50 in HCC cell lines, Hep40
HepG2 = test: Viability of HCC cell line HepG2; assay type: cell-based, human
[3] = tested on: control shRNA and CDC37 shRNA stable transfected Huh7; test: Cell viability of control shRNA and CDC37 shRNA Huh7; assay type: cell-based, human; settings: 6 days of treatment
[4] = tested on: Wnt/β-catenin, Stat3, AKT/mTOR, and EGFR/Ras/Raf pathway proteins; test: Western blotting of signaling proteins in PDX; assay type: in vivo, mouse; settings: NEN 1,500 p.p.m in food
CDC37 [5] = target: T1, CDC37 (Homo sapiens, UniProt Q16543); test: Thermal Shift Assay; assay type: binding; settings: DMSO control 52.3 °C
T1 sequence (Q16543 1-378): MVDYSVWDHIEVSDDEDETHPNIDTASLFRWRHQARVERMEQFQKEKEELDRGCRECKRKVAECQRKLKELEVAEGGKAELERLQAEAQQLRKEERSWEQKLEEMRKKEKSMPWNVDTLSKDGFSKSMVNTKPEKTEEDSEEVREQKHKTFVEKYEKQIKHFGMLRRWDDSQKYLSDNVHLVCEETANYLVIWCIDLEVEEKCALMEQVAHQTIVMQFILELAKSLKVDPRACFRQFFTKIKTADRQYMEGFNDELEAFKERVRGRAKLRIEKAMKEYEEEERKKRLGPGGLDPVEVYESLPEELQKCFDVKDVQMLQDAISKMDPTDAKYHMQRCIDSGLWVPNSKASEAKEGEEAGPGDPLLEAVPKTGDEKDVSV

[6] = single oral dose 40 mg/Kg, mice bearing PDX, compared with niclosamide
SNU-182 = test: Viability of HCC cell line SNU-182; assay type: cell-based, human
Huh7 = test: Viability of HCC cell line Huh7; assay type: cell-based, human
HepG2 and Huh7 cells [7] = test: In vitro anti-proliferation assay combined with sorafenib; assay type: cell-based, human; settings: added at its IC30 or IC50 to a range of sorafenib concentrations
[8] = cited from earlier work
SNU-475 = test: Viability of HCC cell line SNU-475; assay type: cell-based, human
[9] = cited from earlier work; remark: listed apart in the source
[10] = tested on: orthotopic PDX from HCC patients (HCC-1, HCC-2, HCC-3); test: Orthotopic HCC PDX models, drug in food; assay type: in vivo, mouse; settings: for PDX tumor growth (bioluminescence signals and tumor volumes): 1,500 p.p.m mixed in food, oral, vs regular chow
Hep3B = test: Viability of HCC cell line Hep3B; assay type: cell-based, human
[11] = tested on: control shRNA and CDC37 shRNA stable transfected Hep3B; test: Cell viability of control shRNA and CDC37 shRNA Hep3B; assay type: cell-based, human; settings: 6 days of treatment
SNU-398 = test: Viability of HCC cell line SNU-398; assay type: cell-based, human
PLC/PRF/5 = test: Viability of HCC cell line PLC/PRF/5; assay type: cell-based, human
[12] = tested on: control shRNA and CDC37 shRNA stable transfected HepG2; test: Cell viability of control shRNA and CDC37 shRNA HepG2; assay type: cell-based, human; settings: 6 days of treatment
HepG2 and Huh7 cells [13] = assay type: cell-based, human; settings: read-out: IC50, proliferation of HepG2 and Huh7 cells
PDX-HCC-2 = test: PDX; assay type: in vivo, mouse; settings: PDX HCC-2, sorafenib 50 mg/Kg, NEN 200 mg/Kg or niclosamide 400 mg/Kg, daily oral gavage, four weeks
CDC37 [14] = target: T1, CDC37; test: Pull-down assay with niclosamide-conjugated sepharose beads; assay type: binding; settings: niclosamide conjugated to epoxy-activated sepharose beads
[15] = tested on: primary hepatocytes Hu8216; test: Viability of primary hepatocytes Hu8216; assay type: cell-based; settings: Homo sapiens, Hepatocyte, read-out: IC50 in primary hepatocytes, Hu8216
[16] = tested on: primary hepatocytes Hu1748; test: Viability of primary hepatocytes Hu1748; assay type: cell-based; settings: Homo sapiens, Hepatocyte, read-out: IC50 in primary hepatocytes, Hu1748

Compound: NCCO.O=C(Nc1ccc([N+](=O)[O-])cc1Cl)c1cc(Cl)ccc1O [NEN, niclosamide ethanolamine]
weight of whole livers (liver plus tumor nodules) ([1]; vs control and niclosamide groups): significantly reduced liver weight
number of tumor nodules in the livers [1]: visibly reduced the number of tumor nodules
IC50 (SNU-449; read-out: IC50 in HCC cell lines, SNU-449, viability, SNU-449): 530 nM
effect on HSP90/CDC37 interaction (HSP90/CDC37 complex): inhibited the HSP90/CDC37 interaction
heat shock response (HSP70 and HSP27 induction) [2]: did not induce the classical heat shock response
IC50 (SNU-423; read-out: IC50 in HCC cell lines, SNU-423, viability, SNU-423): 260 nM
IC50 (Hep40; viability, Hep40): 740 nM
IC30, HepG2 (HepG2; HepG2): 400 nM
IC50 (HepG2; read-out: IC50 in HCC cell lines, HepG2, viability, HepG2): 460 nM
IC50 ([3]; read-out: IC50, CDC37 knockdown Huh7, CDC37 shRNA): 930 nM
IC50 ([3]; read-out: IC50, mock transfected (control shRNA) Huh7, control shRNA): 610 nM
expression levels of signaling pathway proteins [4]: decreased expression levels of proteins involved in multiple signaling pathways
average Tm value of CDC37 (CDC37 [5]; 25 μM): 54.97 °C
average Tm value of CDC37 (CDC37 [5]; 50 μM): 56.03 °C
plasma levels [6]: similarly higher
IC50 (SNU-182; read-out: IC50 in HCC cell lines, SNU-182, viability, SNU-182): 340 nM
IC30, Huh7 (Huh7; Huh7): 500 nM
IC50 (Huh7; read-out: IC50 in HCC cell lines, Huh7, viability, Huh7): 630 nM
effect on IC50 of sorafenib in HCC cells (HepG2 and Huh7 cells [7]): reduced their IC50 values to sorafenib
systemic bioavailability [8]: improved water solubility and systemic bioavailability over niclosamide
IC50 (SNU-475; read-out: IC50 in HCC cell lines, SNU-475, viability, SNU-475): 350 nM
water solubility [9]: improved water solubility
PDX tumor growth (bioluminescence signals and tumor volumes) [10]: significantly decreased PDX growth
body weight changes ([10]; end of treatment period, treated vs control groups): no significant body weight changes
IC50 (Hep3B; read-out: IC50 in HCC cell lines, Hep3B, viability): 170 nM
IC50 ([11]; read-out: IC50, CDC37 knockdown Hep3B, CDC37 shRNA): 520 nM
IC50 ([11]; read-out: IC50, mock transfected (control shRNA) Hep3B, control shRNA): 160 nM
IC50 (SNU-398; read-out: IC50 in HCC cell lines, SNU-398, viability, SNU-398): 200 nM
IC50 (PLC/PRF/5; read-out: IC50 in HCC cell lines, PLC/PRF/5, viability, PLC/PRF/5): 530 nM
IC50 ([12]; read-out: IC50, CDC37 knockdown HepG2, CDC37 shRNA): 610 nM
IC50 ([12]; read-out: IC50, mock transfected (control shRNA) HepG2, control shRNA): 350 nM

average Tm value of CDC37 (CDC37 [5]; 25 μM): 52.93 °C
average Tm value of CDC37 (CDC37 [5]; 50 μM): 53.2 °C
Compound: NCCO [ethanolamine]

IC50 (HepG2 and Huh7 cells [13]; Homo sapiens): 380 to 1650 nM
Compound: COC(=O)Nc1nc2ccc(C(=O)c3ccccc3)cc2[nH]1 [mebendazole]

Compound: O=C(Nc1ccc([N+](=O)[O-])cc1Cl)c1cc(Cl)ccc1O [niclosamide]
number of tumor nodules in the livers [1]: much lesser effect than NEN
IC50 (SNU-449; Homo sapiens, SNU-449, read-out: IC50 in HCC cell lines, SNU-449): 670 nM
IC50 (SNU-423; Homo sapiens, SNU-423, read-out: IC50 in HCC cell lines, SNU-423): 320 nM
tumor volume (PDX-HCC-2): did not decrease tumor volume
IC50 (Hep40; Homo sapiens): 810 nM
IC50 (HepG2; Homo sapiens, HepG2, read-out: IC50 in HCC cell lines, HepG2): 850 nM
IC50 (SNU-182; Homo sapiens, SNU-182, read-out: IC50 in HCC cell lines, SNU-182): 360 nM
IC50 (Huh7; Homo sapiens, Huh-7, read-out: IC50 in HCC cell lines, Huh7): 740 nM
pull-down of CDC37 (CDC37 [14]): pulled down CDC37
systemic bioavailability ([8]; in vivo): very limited systemic bioavailability
IC50 (SNU-475; Homo sapiens, SNU-475, read-out: IC50 in HCC cell lines, SNU-475): 400 nM
PDX tumor growth (bioluminescence signals and tumor volumes) [10]: did not produce any significant effects on tumor growth
IC50 (Hep3B; Homo sapiens, read-out: IC50 in HCC cell lines, Hep3B): 200 nM
IC50 (HepG2 and Huh7 cells [13]; Homo sapiens): 650 to 1770 nM
IC50 (SNU-398; Homo sapiens, SNU-398, read-out: IC50 in HCC cell lines, SNU-398): 240 nM
IC50 [15]: 4310 nM
IC50 (PLC/PRF/5; Homo sapiens, PLC-PRF-5, read-out: IC50 in HCC cell lines, PLC/PRF/5): 770 nM
IC50 [16]: 3640 nM

Compound: ivermectin
IC50 (HepG2 and Huh7 cells [13]; range over HepG2 and Huh7, Supplemental Figure 8): > 10000 nM
